“Also recorded” adds a separate entry of the source. Square brackets hold non-standard residues; d marks the D form. Aib = CC(C)(N)C(=O)O
Key:
M. persicae = test: Topical application under desiccation/starvation conditions; type: in vivo, Myzus persicae; conditions: data not shown
Protocol: For peptides 2315, 2320 and 2125, peptides were diluted individually in an Armid FMPC formulation (AkzoNobel Surface Chemistry, Stenungsund, Sweden) to concentration of 1×10^−5 M. Using a Nanoject II Auto-Nanoliter micro-injector, 9 nl of the peptide solution was applied topically to the abdomen of a pre-reproductive adult aphid, coating the cuticle in the solution. Aphids were returned to the host plant and allowed to recover for 24 h before use in experiments. Control aphids were topically applied with 9 nl of the Armid FMPC formulation and, once again, allowed to recover for 24 h on the host plant before use in experiments.
Anholocyclic adults of mixed age of either M. persicae or M. rosae were selected from the stock cultures and treated with a native neuropeptide or neuropeptide analogue via microinjection using the method detailed above. Treated and vehicle control aphids were allowed to recover on excised leaves of the host plant for 1 h before being placed in an empty ventilated microcage (L=4 cm, 0=9.5 cm) at densities of 10 per cage. […] Survival data were subsequently analysed using a Log-rank (Mantel-Cox) text in GraphPad Prism version 7.0. LTime50 (the time taken to kill 50% of the test population) values were calculated via Probit Analysis in Minitab 17 (Minitab Inc., State College, Pa.).

Macrosiphum rosae = test: Desiccation/starvation tolerance assay after peptide microinjection; type: in vivo; conditions: Macrosiphum rosae, microinjection; for Documented effect on desiccation/starvation mortality: final concentration ×10^−5 M, relative to vehicle control; for LTime50 (h), test / Median IQR survival (h), test: ×10^−5 M, desiccation and starvation stress, test group
Protocol: (§1) Neuropeptides were administered to test aphids via microinjection to allow for rapid mass screening of neuropeptide analogue efficacy. For this, native neuropeptides were diluted in double distilled water (DDH2O) to a concentration of 1×10^−5 M. Neuropeptide analogues were diluted in DDH2O to the following concentrations: kinin analogues 1728 (2.5×10^−5 M), 2139 (3.5×10^−5 M), 2139-Ac (3.5×10^−5 M); CAP2b analogues 1895 (3.5×10^−5 M), 1896 (3.5×10^−5 M), 1902 (3.5×10^−5 M), 2089 (3.9×10^−5 M), 2123 (1.0×10^−5 M), 2125 (1.0×10^−5 M), 2129 (2.0×10^−5 M). Once at the desired concentration, neuropeptide solutions were administered to test aphids at an injection volume of 9 nl based on total haemolymph volume, to produce an approximate 1:20 dilution of injection volume to haemolymph. Injections were performed using a pulled glass needle and a Nanoject II Auto-Nanoliter Injector (Drummond Scientific Company, Broomall, Pa.). A vehicle control was set up for each treatment/day of experiments to account for variation in needle pulling. For this, control aphids were injected with 9 nl of DDH2O and subsequently exposed to the same experiments as aphids receiving the neuropeptide treatment. Neuropeptide treated and vehicle control aphids were subsequently used in the stress bioassays detailed below.
(§2) Anholocyclic adults of mixed age of either M. persicae or M. rosae were selected from the stock cultures and treated with a native neuropeptide or neuropeptide analogue via microinjection using the method detailed above. Treated and vehicle control aphids were allowed to recover on excised leaves of the host plant for 1 h before being placed in an empty ventilated microcage (L=4 cm, 0=9.5 cm) at densities of 10 per cage. In total, 30-40 aphids were treated for each neuropeptide treatment group and a further 30-40 for the associated vehicle control group. From the point of placement in the microcage (taken as 0 h), aphid survival was checked every hour during daylight hours and approximately every 4 h during night-time hours until the final aphid died. Survival data were subsequently analysed using a Log-rank (Mantel-Cox) text in GraphPad Prism version 7.0. LTime50 (the time taken to kill 50% of the test population) values were calculated via Probit Analysis in Minitab 17 (Minitab Inc., State College, Pa.).

Myzus persicae [1] = test: as above; type: in vivo; conditions: Myzus persicae, microinjection; for Documented effect on desiccation/starvation mortality: final concentration ×10^−5 M, relative to vehicle control; for LTime50 (h), test / Median ± IQR survival (h), test: ×10^−5 M, desiccation and starvation stress, test group
Protocol: as §1, §2

Myzus persicae [2] = test: Cold tolerance bioassay at the discriminating temperature after microinjection; type: in vivo; conditions: M. persicae, 1 h at −9.7° C., survival assessed after 48 h, vs control
Protocol: Neuropeptides were administered to test aphids via microinjection to allow for rapid mass screening of neuropeptide analogue efficacy. For this, native neuropeptides were diluted in double distilled water (DDH2O) to a concentration of 1×10^−5 M. Neuropeptide analogues were diluted in DDH2O to the following concentrations: kinin analogues 1728 (2.5×10^−5 M), 2139 (3.5×10^−5 M), 2139-Ac (3.5×10^−5 M); CAP2b analogues 1895 (3.5×10^−5 M), 1896 (3.5×10^−5 M), 1902 (3.5×10^−5 M), 2089 (3.9×10^−5 M), 2123 (1.0×10^−5 M), 2125 (1.0×10^−5 M), 2129 (2.0×10^−5 M). […]
For this reason, and given its global pest status, only M. persicae was taken forward in cold stress assays. […] Following exposure, aphids were allowed to recover at the culture temperature in microcages containing excised leaves of the host plant and survival was assessed after 48 h. […]
Survival data were analysed using Probit analysis in MINITAB, version 17 (Minitab Inc., State College, Pa.) and the LT30 (the lethal temperature resulting in 30% mortality of a test population) was elucidated.
Pre-reproductive anholocyclic adult aphids of M. persicae were treated with neuropeptide analogues using the microinjection method detailed above. […] Following exposure, adults were allowed to recover at the culture temperature in microcages containing excised leaves of the host plant and survival was assessed after 48 h. […]

Substance: 2Abf-Suc-FT[Oic]RV-NH2 [compound 2125]
- effect on mortality (M. persicae): significantly increased mortality
- Documented effect on desiccation/starvation mortality (Macrosiphum rosae): non-significant survival curves; also recorded: No effect
- LTime50 (h), test (Macrosiphum rosae): 21.6 | 20.1 h
- Median IQR survival (h), test (Macrosiphum rosae): 24.0 ± 9.25 | 20.5 ± 18.0 h
- Documented effect on desiccation/starvation mortality (Myzus persicae [1]): non-significant survival curves; also recorded: No effect
- LTime50 (h), test (Myzus persicae [1]): 10.8 | 13.0 h
- Median ± IQR survival (h), test (Myzus persicae [1]): 11.0 ± 12.0 | 11.0 ± 12.0 h

Substance: Ac-FF[Aib]WG-NH2 [2139-AC, reference compound]
- Documented effect on desiccation/starvation mortality (Macrosiphum rosae): No effect
- LTime50 (h), test (Macrosiphum rosae): 44.0 | 40.1 h
- Median IQR survival (h), test (Macrosiphum rosae): 39.0 ± 37.0 | 35.0 ± 32.0 h
- Documented effect on desiccation/starvation mortality (Myzus persicae [1]): No effect
- LTime50 (h), test (Myzus persicae [1]): 19.4 | 16.7 h
- Median ± IQR survival (h), test (Myzus persicae [1]): 22.5 ± 19.8 | 20.0 ± 14.0 h
- Effect on survival/mortality under cold stress (Myzus persicae [2]): acting to increase survival relative to the control

— patent US20220039395A1, “INSECT CONTROL AGENTS” (priority 2018, published 2022)
